Data: ChEMBL document CHEMBL5247653, “Discovery of Clinical Candidate ACT-777991, a Potent CXCR3 Antagonist for Antigen-Driven and Inflammatory Pathologies” (J Med Chem, 2023)

Tests used:
[1] = molecular target: CYP2D6 (Homo sapiens, UniProt P10635); assay: (§1) […] recombinant human CYP2D6 mediated drug metabolism in human liver microsomes assessed as intrinsic clearance at 1 uM incubated for 45 mins in presence of NADPH regenerating system by LC-MS/MS analysis; format: ADME, Microsome; conditions: recombinant human CYP2D6, read-out: CLH
[2] = Metabolic stability in human liver microsomes assessed as intrinsic clearance at 1 uM and measured upto 15 mins in presence of NADPH regenerating system by LC-MS/MS analysis; format: ADME, Microsome; conditions: read-out: CLH
[3] = molecular target: T1, C-X-C chemokine receptor type 3 (Homo sapiens, UniProt P49682); assay: Antagonist activity at CXCR3 (unknown origin) in human T cells in venous blood assessed as receptor internalization incubated for 30 mins in presence of CXCL10 by flow cytometric analysis; format: cell-based, T cell
T1 sequence (P49682 whole entry): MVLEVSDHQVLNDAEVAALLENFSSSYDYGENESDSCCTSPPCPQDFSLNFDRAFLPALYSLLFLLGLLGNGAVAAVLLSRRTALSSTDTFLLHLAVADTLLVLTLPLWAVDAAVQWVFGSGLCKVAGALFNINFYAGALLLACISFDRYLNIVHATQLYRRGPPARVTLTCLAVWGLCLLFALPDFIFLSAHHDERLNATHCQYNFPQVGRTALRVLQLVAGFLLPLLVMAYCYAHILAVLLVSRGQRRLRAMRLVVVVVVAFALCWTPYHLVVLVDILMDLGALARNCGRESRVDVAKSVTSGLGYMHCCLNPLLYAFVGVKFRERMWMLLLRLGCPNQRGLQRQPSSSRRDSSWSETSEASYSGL

[4] = molecular target: CYP3A4 (Homo sapiens, UniProt P08684); assay: […] recombinant human CYP3A4 mediated drug metabolism in human liver microsomes assessed as intrinsic clearance at 1 uM incubated for 45 mins in presence of NADPH regenerating system by LC-MS/MS analysis; format: ADME, Microsome; conditions: read-out: CLH
[5] = molecular target: Voltage-gated inwardly rectifying potassium channel KCNH2 (Homo sapiens, UniProt Q12809); assay: Inhibition of human ERG stably expressed in CHO cells at -80 mV holding voltage by automated QPatch electrophysiological assay; format: toxicity, cell-based
[6] = Lipophilicity, log D of compound; format: physicochemical; conditions: octanol/water
[7] = Metabolic stability in dog liver microsomes assessed as intrinsic clearance at 1 uM and measured upto 15 mins in presence of NADPH regenerating system by LC-MS/MS analysis; format: ADME, Canis lupus familiaris, Microsome; conditions: read-out: CLH
[8] = molecular target: Cytochrome P450 2D6 (Homo sapiens, UniProt P10635); assay: as §1; format: ADME, Microsome; conditions: microsomes, 0.75 h, 1 µM
[9] = Metabolic stability in rat hepatocytes assessed as intrinsic clearance per 10^6 cells at 1 uM by LC-MS/MS analysis; format: ADME, cell-based, Hepatocyte
[10] = Protein binding in dog plasma assessed as fraction unbound at 1 uM incubated for 6 hrs by rapid equilibrium dialysis based LC-MS/MS analysis; format: ADME, cell-free, Canis lupus familiaris
[11] = Metabolic stability in rat liver microsomes assessed as intrinsic clearance at 1 uM and measured upto 15 mins in presence of NADPH regenerating system by LC-MS/MS analysis; format: ADME, Microsome; conditions: read-out: CLH
[12] = Total clearance in Wistar rat plasma at 0.5 mg/kg, iv; format: ADME, organism-based
[13] = Total clearance in Beagle dog plasma at 1 mg/kg, iv; format: ADME, organism-based, Canis lupus familiaris
[14] = Unbound clearance in Wistar rat plasma at 0.5 mg/kg, iv; format: ADME, organism-based; conditions: in vivo
[15] = Metabolic stability in human hepatocytes assessed as intrinsic clearance per 10^6 cells at 1 uM by LC-MS/MS analysis; format: ADME, cell-based, Hepatocyte
[16] = Drug excretion in urine of Wistar rat assessed as unchanged drug at 0.5 mg/kg, iv; format: ADME, organism-based; conditions: read-out: Drug excretion
[17] = Unbound clearance in Beagle dog plasma at 1 mg/kg, iv; format: ADME, organism-based, Canis lupus familiaris; conditions: in vivo
[18] = Metabolic stability in dog hepatocytes assessed as intrinsic clearance per 10^6 cells at 1 uM by LC-MS/MS analysis; format: ADME, cell-based, Canis lupus familiaris, Hepatocyte
[19] = Protein binding in human plasma assessed as fraction unbound at 1 uM incubated for 6 hrs by rapid equilibrium dialysis based LC-MS/MS analysis; format: ADME, cell-free
[20] = Protein binding in rat plasma assessed as fraction unbound at 1 uM incubated for 6 hrs by rapid equilibrium dialysis based LC-MS/MS analysis; format: ADME, cell-free
[21] = Oral bioavailability in Wistar rat at 2 mg/kg; format: ADME, organism-based; conditions: in vivo
[22] = Oral bioavailability in Beagle dog at 2 mg/kg; format: ADME, organism-based, Canis lupus familiaris; conditions: in vivo
[23] = Clearance in Wistar rat at 2 mg/kg,po; format: ADME, organism-based; conditions: in vivo

Chain of Voltage-gated inwardly rectifying potassium channel KCNH2 (Q12809 whole entry): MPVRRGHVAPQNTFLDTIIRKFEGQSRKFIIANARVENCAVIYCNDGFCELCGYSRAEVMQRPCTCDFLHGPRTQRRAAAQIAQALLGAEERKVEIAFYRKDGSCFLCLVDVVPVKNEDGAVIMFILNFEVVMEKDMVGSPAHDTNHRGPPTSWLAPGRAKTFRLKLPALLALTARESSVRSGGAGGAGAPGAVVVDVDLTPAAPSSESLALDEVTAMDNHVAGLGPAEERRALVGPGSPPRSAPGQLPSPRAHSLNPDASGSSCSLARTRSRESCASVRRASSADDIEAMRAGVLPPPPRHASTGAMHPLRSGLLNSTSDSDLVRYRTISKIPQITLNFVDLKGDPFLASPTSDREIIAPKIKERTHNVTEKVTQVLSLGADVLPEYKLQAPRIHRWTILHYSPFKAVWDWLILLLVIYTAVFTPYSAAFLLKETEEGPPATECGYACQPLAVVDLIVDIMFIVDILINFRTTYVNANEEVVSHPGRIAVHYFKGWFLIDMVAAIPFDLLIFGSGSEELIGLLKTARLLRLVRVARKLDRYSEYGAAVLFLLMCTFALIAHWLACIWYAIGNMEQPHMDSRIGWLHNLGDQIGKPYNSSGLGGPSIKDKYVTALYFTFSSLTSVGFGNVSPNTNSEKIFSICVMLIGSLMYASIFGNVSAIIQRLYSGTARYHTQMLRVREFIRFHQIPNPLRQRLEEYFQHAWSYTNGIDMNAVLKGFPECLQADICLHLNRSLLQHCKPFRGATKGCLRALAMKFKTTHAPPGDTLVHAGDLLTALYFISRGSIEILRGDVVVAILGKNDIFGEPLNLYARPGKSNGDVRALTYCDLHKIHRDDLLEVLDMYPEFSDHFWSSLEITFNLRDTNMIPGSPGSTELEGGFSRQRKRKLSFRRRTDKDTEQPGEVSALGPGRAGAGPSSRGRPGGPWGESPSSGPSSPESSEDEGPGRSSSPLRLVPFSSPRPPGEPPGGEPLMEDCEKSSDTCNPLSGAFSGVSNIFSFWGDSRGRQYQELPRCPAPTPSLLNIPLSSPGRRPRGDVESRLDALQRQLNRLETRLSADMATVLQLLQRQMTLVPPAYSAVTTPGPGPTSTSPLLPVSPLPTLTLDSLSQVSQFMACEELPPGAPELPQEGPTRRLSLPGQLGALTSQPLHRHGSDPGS
Chain of CYP3A4 (P08684 whole entry): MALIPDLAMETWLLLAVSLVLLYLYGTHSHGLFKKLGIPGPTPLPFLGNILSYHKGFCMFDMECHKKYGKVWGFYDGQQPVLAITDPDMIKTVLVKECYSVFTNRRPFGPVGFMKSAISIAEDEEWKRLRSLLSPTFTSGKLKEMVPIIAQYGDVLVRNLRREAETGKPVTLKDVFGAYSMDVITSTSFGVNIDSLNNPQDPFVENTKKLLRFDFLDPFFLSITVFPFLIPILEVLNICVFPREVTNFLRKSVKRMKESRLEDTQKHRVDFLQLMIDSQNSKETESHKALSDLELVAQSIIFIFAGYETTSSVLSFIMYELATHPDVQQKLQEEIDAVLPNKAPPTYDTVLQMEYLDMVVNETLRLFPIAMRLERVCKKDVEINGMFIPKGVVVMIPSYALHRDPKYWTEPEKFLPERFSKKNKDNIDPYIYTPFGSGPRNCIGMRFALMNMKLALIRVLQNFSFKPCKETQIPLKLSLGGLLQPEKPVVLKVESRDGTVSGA
Chain of Cytochrome P450 2D6 (P10635 whole entry): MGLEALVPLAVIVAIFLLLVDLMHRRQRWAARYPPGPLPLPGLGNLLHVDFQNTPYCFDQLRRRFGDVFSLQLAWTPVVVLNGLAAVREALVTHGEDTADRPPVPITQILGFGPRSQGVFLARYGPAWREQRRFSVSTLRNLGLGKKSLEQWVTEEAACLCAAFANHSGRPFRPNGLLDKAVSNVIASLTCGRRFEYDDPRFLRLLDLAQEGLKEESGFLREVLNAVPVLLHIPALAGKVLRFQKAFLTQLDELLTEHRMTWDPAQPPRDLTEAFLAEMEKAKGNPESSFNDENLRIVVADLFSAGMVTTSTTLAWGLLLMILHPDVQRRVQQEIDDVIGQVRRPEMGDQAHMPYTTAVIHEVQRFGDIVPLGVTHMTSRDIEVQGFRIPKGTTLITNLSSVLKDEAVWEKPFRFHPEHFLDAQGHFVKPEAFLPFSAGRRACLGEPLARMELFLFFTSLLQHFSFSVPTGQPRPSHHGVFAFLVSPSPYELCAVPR
Chain of CYP2D6 (P10635 whole entry): as above

Row | Compound | microsomal CLint at 1 µM [2] | IC50 [3] | IC50 [5] | further results
1 | CC(C)c1ncn(CC(=O)N2CCN(c3sc(C(F)(F)F)nc3-c3cnc(C(F)(F)F)nc3)C[C@H]2CO)n1 | 33 µL/min/mg | 0.225 µM | 29 µM | microsomal CLint at 1 µM [1]: 0.13 µL/min/mg; microsomal CLint at 1 µM [4]: 1.2 µL/min/mg
2 | CCc1ccn(CC(=O)N2CCN(c3sc(C(F)(F)F)nc3-c3cnc(C(F)(F)F)nc3)C[C@H]2CO)n1 | 81 µL/min/mg | 0.0337 µM | 8.6 µM | –
3 | Cc1ccn(CC(=O)N2CCN(c3sc(C(F)(F)F)nc3-c3cnc(C(F)(F)F)nc3)C[C@H]2CCO)n1 | 19 µL/min/mg | 0.0302 µM | 5 µM | –
4 | C[C@@H]1CN(c2sc(C(F)(F)F)nc2-c2cnc(C(F)(F)F)nc2)CCN1C(=O)Cn1cnc(C(N)=O)n1 | – | 2.15 µM | > 60 µM | –
5 | CCc1ncn(CC(=O)N2CCN(c3sc(C(F)(F)F)nc3-c3cnc(C(F)(F)F)nc3)C[C@@H]2CCO)n1 | 17 µL/min/mg | 0.265 µM | 27 µM | –
6 | CCc1ncnn1CC(=O)N1CCN(c2sc(C(F)(F)F)nc2-c2cnc(C(F)(F)F)nc2)C[C@H]1C | – | 1.19 µM | 13 µM | logD [6]: 2.8
7 | CCc1ncn(CC(=O)N2CCN(c3sc(C(F)(F)F)nc3-c3cnc(C(F)(F)F)nc3)C[C@H]2CCO)n1 | < 10 µL/min/mg | 0.0449 µM | 9.8 µM | microsomal CLint at 1 µM [7]: < 10 µL/min/mg; CLH [8]: 0.09 µL/min/mg; CLH [9]: 3.2 µL/min/mg; fraction unbound at 6 h, 1 µM [10]: 0.3; microsomal CLint at 1 µM [11]: 13 µL/min/mg; clearance [12]: 14 mL/min/kg; clearance [13]: 19 mL/min/kg; CL free [14]: 311 mL/min/kg; logD [6]: 2.8; CLH [15]: < 2 µL/min/mg; dose excreted [16]: 37%; CL free [17]: 64 mL/min/kg; CLH [18]: < 2 µL/min/mg; microsomal CLint at 1 µM [4]: 0.33 µL/min/mg; fraction unbound at 6 h, 1 µM [19]: 0.15; fraction unbound at 6 h, 1 µM [20]: 0.045
8 | Cc1ncn(CC(=O)N2CCN(c3sc(C(F)(F)F)nc3-c3cnc(C(F)(F)F)nc3)C[C@H]2CO)n1 | < 10 µL/min/mg | 0.167 µM | > 60 µM | –
9 | C[C@@H]1CN(c2sc(C(F)(F)F)nc2-c2cnc(C(F)(F)F)nc2)CCN1C(=O)Cn1cnc(CO)n1 | – | 0.51 µM | > 60 µM | –
10 | CC(C)c1ncn(CC(=O)N2CCN(c3sc(C(F)(F)F)nc3-c3cnc(C(F)(F)F)nc3)C[C@H]2C)n1 | – | 0.128 µM | 7 µM | bioavailability [21]: > 100%; bioavailability [22]: ≥ 100%; CL/F [23]: 6.5 mL/min/kg
11 | CC(C)c1ncn(CC(=O)N2CCN(c3sc(C(F)(F)F)nc3-c3cnc(C(F)(F)F)nc3)C[C@H]2CCO)n1 | 22 µL/min/mg | 0.063 µM | 5.8 µM | –
12 | CCc1nc(C)nn1CC(=O)N1CCN(c2sc(C(F)(F)F)nc2-c2cnc(C(F)(F)F)nc2)C[C@H]1C | – | 0.68 µM | 12 µM | –
13 | CCc1ncn(CC(=O)N2CCN(c3sc(C(F)(F)F)nc3-c3cnc(C(F)(F)F)nc3)C[C@H]2C)n1 | – | 0.117 µM | 12 µM | –
14 | CC(C)c1ncn(CC(=O)N2CCN(c3sc(C(F)(F)F)nc3-c3cnc(C(F)(F)F)nc3)C[C@@H]2CO)n1 | 27 µL/min/mg | 0.161 µM | 17 µM | –
15 | O=C(Cn1cnc(C2CC2)n1)N1CCN(c2sc(C(F)(F)F)nc2-c2cnc(C(F)(F)F)nc2)C[C@H]1CO | < 10 µL/min/mg | 0.14 µM | 31 µM | –
16 | CCc1nncn1CC(=O)N1CCN(c2sc(C(F)(F)F)nc2-c2cnc(C(F)(F)F)nc2)C[C@H]1C | – | 1.19 µM | > 60 µM | logD [6]: 2.3
17 | C[C@@H]1CN(c2sc(C(F)(F)F)nc2-c2cnc(C(F)(F)F)nc2)CCN1C(=O)Cn1cnc(C(C)(C)C)n1 | – | 0.24 µM | 7.5 µM | –
18 | C[C@@H]1CN(c2sc(C(F)(F)F)nc2-c2cnc(C(F)(F)F)nc2)CCN1C(=O)Cn1cnc(C(F)(F)F)n1 | – | 0.191 µM | 3.9 µM | –
